The assay concerns the target RNA-directed RNA polymerase (Hepacivirus hominis, UniProt Q8JXU8). As to the kind of experiment: Inhibitory activity against HCV delta 21 NS5b RNA polymerase.

Sequence of RNA-directed RNA polymerase (Q8JXU8 whole entry): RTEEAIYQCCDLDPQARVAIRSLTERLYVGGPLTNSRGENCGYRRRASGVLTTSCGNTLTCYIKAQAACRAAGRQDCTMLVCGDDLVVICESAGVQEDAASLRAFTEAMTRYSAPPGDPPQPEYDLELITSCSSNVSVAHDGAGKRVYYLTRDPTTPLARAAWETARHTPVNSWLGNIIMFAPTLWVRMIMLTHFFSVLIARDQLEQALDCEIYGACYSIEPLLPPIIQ

Broadly, the IC50 is the concentration at which inhibition is half-maximal. Read a low IC50 as greater potency. Take `O=C(NN1C(=O)C(=Cc2ccc(Cl)cc2)SC1=S)c1ccccc1` [5-(4-chlorobenzylidene)-3-(benzoylamino)-4-oxo-2-thionothiazolidine]: the concentration for half-maximal inhibition (IC50) is > 30 µM.

Compound `C=C(c1ccc(Cl)c(Cl)c1)c1sc(=S)n(NS(=O)(=O)c2ccccc2)c1O` [5-(3,4-dichlorophenyl-1-ethylene)-3-(benzenesulfonylamino)-4-oxo-2-thionothiazolidine] displayed an IC50 of 0.6 µM. This lies in the sub-micromolar range.

`O=S(=O)(Nn1c(O)c(Cc2ccc(Cl)c(Cl)c2)sc1=S)c1ccccc1` [5-(3,4-dichlorobenzyl)-3-(benzenesulfonylamino)-4-oxo-2-thionothiazolidine] gave a 50% inhibitory concentration (IC50) of 11 µM. Against the preceding compound, the IC50 is about 18-fold higher.

Take `O=C1N=C(S)SC1=Cc1ccc(Cl)cc1` [5-(4-chlorobenzylidene)-2-thioxothiazolidin-4-one]: the IC50 was > 30 µM.

Turning to `O=C1C(=Cc2ccc(-c3cc(C(F)(F)F)ccc3Cl)o2)SC(=S)N1NS(=O)(=O)c1ccccc1` [5-(5-[2-chloro-5-(trifluoromethyl)phenyl]-furan-2-methylene)-3-(benzenesulfonylamino)-4-oxo-2-thionothiazolidine], the IC50 came out at 0.1 µM. This counts as sub-micromolar.
